Assay results from PubChem BioAssay (NCI).
Where “and” joins values, the source holds several entries; their conditions need not be identical. Identical values can stand only once.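 Each compound was tested at five concentrations against cells in 96-well plates for 48 hours. At the GI50, growth is halved. The concentration for full growth arrest is given as TGI.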

Key:
Assay in all cases: DTP human tumour cell line panel, 48 h
COLO 205 colon = tested on: COLO 205 colon
SK-MEL-5 melanoma = tested on: SK-MEL-5 melanoma
A498 renal = tested on: A498 renal
UACC-257 melanoma = tested on: UACC-257 melanoma
NCI-H23 lung = tested on: NCI-H23 lung
SK-MEL-28 melanoma = tested on: SK-MEL-28 melanoma
OVCAR-5 ovarian = tested on: OVCAR-5 ovarian
HCT-116 colon = tested on: HCT-116 colon
786-0 renal = tested on: 786-0 renal
K-562 leukemia = tested on: K-562 leukemia

| SMILES | GI50 (COLO 205 colon) | TGI (COLO 205 colon) | GI50 (SK-MEL-5 melanoma) | TGI (SK-MEL-5 melanoma) | GI50 (A498 renal) | TGI (A498 renal) | GI50 (UACC-257 melanoma) | TGI (UACC-257 melanoma) | GI50 (NCI-H23 lung) | TGI (NCI-H23 lung) | GI50 (SK-MEL-28 melanoma) | TGI (SK-MEL-28 melanoma) | GI50 (OVCAR-5 ovarian) | TGI (OVCAR-5 ovarian) | GI50 (HCT-116 colon) | TGI (HCT-116 colon) | GI50 (786-0 renal) | TGI (786-0 renal) | TGI (K-562 leukemia) | GI50 (K-562 leukemia) |
| --- | --- | --- | --- | --- | --- | --- | --- | --- | --- | --- | --- | --- | --- | --- | --- | --- | --- | --- | --- | --- |
| Clc1ccc2c(NCCCNc3nccc(Nc4ccc(Br)cc4)n3)ccnc2c1 | 1.64 µM | 3.22 µM | 1.48 µM | 2.84 µM | 1.22 µM | 2.48 µM | 1.87 µM | 3.4 µM | 1.74 µM | 3.27 µM | 1.65 µM | 3.15 µM | 1.63 µM | 3.18 µM | 1.36 µM | 3.08 µM | 1.75 µM | 3.45 µM | – | – |
| CC1=CC(/C=C(\C)CCCc2ccoc2)C2(OC(=O)C(C)=C2O)[C@H]2C1CC[C@@H]2C (stereo not given in full) | – | 47 µM | – | 46.4 µM | – | 49.2 µM | – | > 100 µM | – | 67.2 µM | – | > 100 µM | – | – | – | 38.1 µM | – | 32.2 µM | > 100 µM | – |
| CCCCc1c(OC)cc(O)c2c1C(=O)c1[nH]c(C(=O)O)c(O)c(=O)c1C2=O | – | 64.6 µM | – | – | – | – | – | 46.6 µM | – | 20.3 µM | – | > 100 µM | – | 65.3 µM | – | > 100 µM | – | 63.8 µM | > 100 µM | – |
| CNC(=S)NC1CCCCC1NC(=S)NC (stereo not given) | – | > 100 µM | – | > 100 µM | – | – | – | – | – | > 100 µM | – | > 100 µM | – | > 100 µM | – | > 100 µM | – | > 100 µM | > 100 µM | – |
| COc1ccc(OC)c(NC(=O)C(=O)NNC(=O)c2sc(NNC(C)=O)nc2C)c1 | – | – | – | > 100 µM | – | 52.1 µM | – | 61.5 µM | – | 68.8 µM | – | > 100 µM | – | > 100 µM | – | > 100 µM | – | > 100 µM | 43.1 µM | – |
| O=C1CCCC/C(=C/c2ccccc2)N1 | – | > 100 µM | – | – | – | > 100 µM | – | > 100 µM | – | > 100 µM | – | > 100 µM | – | > 100 µM | – | > 100 µM | – | > 100 µM | > 100 µM | – |
| COC(=O)c1cc2c(cc1O)[C@@H](NC(C)=O)CCc1cc(OC)c(OC)c(OC)c1-2 | 0.0236 µM | 1.56 µM and 1.18 µM | – | – | 0.0422 µM | – | 0.0274 µM | > 100 µM | 0.0217 µM | 0.0848 µM and 0.0712 µM | > 100 µM | > 100 µM | – | – | 0.0164 µM | – | 0.0416 µM | > 100 µM | > 100 µM | 0.0246 µM |
| COC(=O)c1cc2c3ccccc3n(C(C)=O)c2cn1 | – | > 100 µM | – | > 100 µM | – | – | – | > 100 µM | – | > 100 µM | – | > 100 µM | – | > 100 µM | – | > 100 µM | – | > 100 µM | > 100 µM | – |
| CCCCOC(=O)C1C(c2ccc(Cl)cc2)NC(c2ccc(Cl)cc2)C(C(=O)OCCCC)S1(=O)=O (stereo not given) | – | > 100 µM | – | > 100 µM | – | > 100 µM | – | > 100 µM | – | > 100 µM | – | > 100 µM | – | > 100 µM | – | – | – | > 100 µM | > 100 µM | – |
| CC(C)(C)C(=O)OCOP(=O)(OCOC(=O)C(C)(C)C)C1CCCN(O)C1=O (stereo not given) | 0.6 µM | 3.64 µM | 0.324 µM | 1.58 µM | – | – | 1.19 µM | 13.5 µM | 0.564 µM | 3.4 µM | 0.321 µM | 1.14 µM | 2.01 µM | 62.7 µM | – | – | 0.35 µM | 18.1 µM | > 100 µM | 0.393 µM |
| NC(=NCCCOc1ccc(Cl)cc1)Nc1ccc(C(F)(F)F)cc1 | 1.54 µM | 3.25 µM | 1.61 µM | 2.97 µM | 2.08 µM | 6.08 µM | 1.72 µM | 3.56 µM | 2.06 µM | 5.54 µM | – | – | 2.67 µM | 13.7 µM | 1.32 µM | 2.74 µM | 1.65 µM | 4.32 µM | 5.6 µM | 1.76 µM |
| CC(C)(C)OC(=O)NCC(=O)OCc1ccccc1 | – | > 100 µM | – | – | – | > 100 µM | – | > 100 µM | – | > 100 µM | – | > 100 µM | – | > 100 µM | – | > 100 µM | – | > 100 µM | > 100 µM | – |
| O=C1c2ccccc2C2(Br)C(=O)c3ccccc3C12 (stereo not given) | – | > 100 µM | – | > 100 µM | – | – | – | > 100 µM | – | > 100 µM | – | > 100 µM | – | > 100 µM | – | – | – | > 100 µM | > 100 µM | – |
| Ic1ccc(Nc2nc3nonc3nc2Nc2ccc(I)cc2)cc1 | 0.265 µM | 0.937 µM | 0.137 µM | 0.352 µM | 0.0829 µM | 0.418 µM | 0.2 µM | 0.772 µM | – | – | – | – | 0.387 µM | > 100 µM | 0.135 µM | > 100 µM | 0.332 µM | > 100 µM | > 100 µM | 0.091 µM |
